# Laboratory results reported in ChEMBL document CHEMBL1201862, “PubChem BioAssay data set” (2004).
# Active and inactive are the calls of the source.
# Key:
# Candida albicans [1] = experiment: fluconazole-resistant Candida strain growth inhibitors – CaCi-8 strain, dry powder, set 4, dose response (AID 488950); assay type: functional, organism-based
# Candida albicans [2] = experiment: C. albicans growth inhibition with fluconazole – CaCi-2 strain, Alamar Blue, dry powder, set 4, dose response (AID 488943); assay type: functional, organism-based
# [3] = target: T1, Sentrin-specific protease 8 (Homo sapiens, UniProt Q96LD8); experiment: inhibition of human SENP8 cleavage activity – biochemical, luminescence, SAR follow-up (AID 504501); assay type: functional
# T1 sequence (Q96LD8 whole entry): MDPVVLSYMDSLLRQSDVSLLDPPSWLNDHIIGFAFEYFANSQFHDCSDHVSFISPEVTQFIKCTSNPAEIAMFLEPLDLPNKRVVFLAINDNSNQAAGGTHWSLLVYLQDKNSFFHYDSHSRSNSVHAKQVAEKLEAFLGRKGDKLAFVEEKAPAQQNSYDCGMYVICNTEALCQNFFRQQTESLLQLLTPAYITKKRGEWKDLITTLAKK
# Caspase-3 = target: T2, Caspase-3 (Homo sapiens, UniProt P42574); experiment: SAR Analysis of small molecule inhibitors of Sentrin-specific proteases (SENPs) using a Caspase-3 Selectivity assay. [Related pubchem assays (depositor defined):AID2540, AID2599, AID434973, AID489001]; assay type: functional
# T2 sequence (P42574 whole entry): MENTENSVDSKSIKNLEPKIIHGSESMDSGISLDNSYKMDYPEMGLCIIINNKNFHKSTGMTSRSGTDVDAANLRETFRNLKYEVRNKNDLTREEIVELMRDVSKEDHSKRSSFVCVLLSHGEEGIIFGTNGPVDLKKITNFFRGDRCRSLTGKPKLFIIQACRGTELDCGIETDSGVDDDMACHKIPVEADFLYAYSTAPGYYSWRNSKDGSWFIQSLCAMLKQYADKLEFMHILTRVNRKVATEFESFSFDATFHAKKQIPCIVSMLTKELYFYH
# [4] = target: T3, Sentrin-specific protease 6 (Homo sapiens, UniProt Q9GZR1); experiment: SAR Analysis of small molecule inhibitors of Sentrin-specific protease 6 (SENP6) using a Luminescent assay. [Related pubchem assays (depositor defined):AID2582, AID2599]; assay type: functional
# T3 sequence (Q9GZR1 whole entry): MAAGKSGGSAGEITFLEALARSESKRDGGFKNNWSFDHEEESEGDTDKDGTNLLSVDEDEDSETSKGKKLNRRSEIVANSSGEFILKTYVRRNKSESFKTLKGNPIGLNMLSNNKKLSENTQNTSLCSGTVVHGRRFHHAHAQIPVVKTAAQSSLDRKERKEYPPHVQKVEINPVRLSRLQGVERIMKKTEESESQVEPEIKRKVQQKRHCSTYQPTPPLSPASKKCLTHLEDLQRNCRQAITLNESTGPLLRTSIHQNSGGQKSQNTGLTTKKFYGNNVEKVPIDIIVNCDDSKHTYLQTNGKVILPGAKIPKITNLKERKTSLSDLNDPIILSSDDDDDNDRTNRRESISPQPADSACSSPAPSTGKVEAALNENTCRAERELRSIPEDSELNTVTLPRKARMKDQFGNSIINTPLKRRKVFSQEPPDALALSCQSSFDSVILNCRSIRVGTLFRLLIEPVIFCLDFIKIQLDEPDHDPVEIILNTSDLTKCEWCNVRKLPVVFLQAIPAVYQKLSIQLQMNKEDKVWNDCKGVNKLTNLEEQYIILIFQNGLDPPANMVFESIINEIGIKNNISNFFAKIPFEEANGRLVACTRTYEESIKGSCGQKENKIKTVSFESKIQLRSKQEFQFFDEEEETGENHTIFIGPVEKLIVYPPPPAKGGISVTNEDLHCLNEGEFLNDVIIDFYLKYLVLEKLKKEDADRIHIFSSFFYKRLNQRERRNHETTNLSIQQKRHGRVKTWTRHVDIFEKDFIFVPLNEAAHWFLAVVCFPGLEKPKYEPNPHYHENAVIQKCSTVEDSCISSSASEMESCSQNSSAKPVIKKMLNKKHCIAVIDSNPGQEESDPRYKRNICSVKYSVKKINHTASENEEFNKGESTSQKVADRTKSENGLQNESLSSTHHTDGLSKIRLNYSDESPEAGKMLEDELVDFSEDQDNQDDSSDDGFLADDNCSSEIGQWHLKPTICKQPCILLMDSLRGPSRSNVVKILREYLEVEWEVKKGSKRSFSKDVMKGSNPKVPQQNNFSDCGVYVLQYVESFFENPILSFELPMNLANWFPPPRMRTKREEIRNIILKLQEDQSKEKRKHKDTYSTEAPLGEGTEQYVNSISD
# [5] = target: T4, Sentrin-specific protease 7 (Homo sapiens, UniProt Q9BQF6); experiment: inhibition of human SENP7 cleavage activity – biochemical, luminescence, SAR follow-up (AID 504497); assay type: functional
# T4 sequence (Q9BQF6 whole entry): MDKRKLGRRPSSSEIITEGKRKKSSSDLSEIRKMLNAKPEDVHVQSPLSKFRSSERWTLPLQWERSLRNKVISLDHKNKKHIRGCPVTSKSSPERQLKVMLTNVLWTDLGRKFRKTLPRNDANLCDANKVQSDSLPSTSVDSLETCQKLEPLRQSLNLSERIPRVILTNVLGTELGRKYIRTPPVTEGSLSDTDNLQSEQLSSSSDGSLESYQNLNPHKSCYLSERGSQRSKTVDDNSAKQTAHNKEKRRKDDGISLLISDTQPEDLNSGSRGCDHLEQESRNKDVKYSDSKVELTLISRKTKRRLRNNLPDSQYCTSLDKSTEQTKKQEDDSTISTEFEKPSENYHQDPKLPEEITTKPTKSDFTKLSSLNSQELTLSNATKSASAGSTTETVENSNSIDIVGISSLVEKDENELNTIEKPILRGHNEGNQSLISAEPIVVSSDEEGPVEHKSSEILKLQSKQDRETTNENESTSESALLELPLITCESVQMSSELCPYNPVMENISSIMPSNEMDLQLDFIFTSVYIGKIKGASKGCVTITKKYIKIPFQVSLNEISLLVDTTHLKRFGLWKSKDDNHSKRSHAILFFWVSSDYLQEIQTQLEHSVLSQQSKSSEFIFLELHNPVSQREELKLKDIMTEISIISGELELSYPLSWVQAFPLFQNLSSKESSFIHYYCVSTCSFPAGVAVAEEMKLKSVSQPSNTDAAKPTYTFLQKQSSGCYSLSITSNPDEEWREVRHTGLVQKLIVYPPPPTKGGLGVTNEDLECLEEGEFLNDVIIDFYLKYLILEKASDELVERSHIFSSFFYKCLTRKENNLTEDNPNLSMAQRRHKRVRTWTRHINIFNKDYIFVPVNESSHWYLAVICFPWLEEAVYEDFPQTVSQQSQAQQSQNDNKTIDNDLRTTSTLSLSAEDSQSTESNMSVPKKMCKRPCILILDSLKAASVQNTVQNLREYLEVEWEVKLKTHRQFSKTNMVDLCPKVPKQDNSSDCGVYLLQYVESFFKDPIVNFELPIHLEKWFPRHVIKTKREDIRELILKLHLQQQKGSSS
# [6] = tested on: Streptococcus sp. 'group A'; experiment: Streptococcus pyogenes SK(-)GAS viability under kanamycin – luminescence, BacTiterGlo, confirmation, counter-screen for streptokinase expression inhibitor project, dose response (AID 1900); assay type: functional, organism-based
# Streptokinase A = target: T5, Streptokinase A (Streptococcus pyogenes serotype M1, UniProt P10520); experiment: viability-normalized secreted streptokinase activity reduction – plasminogen activation absorbance, OD405, dose response (AID 1914); assay type: functional, Streptococcus pyogenes M1 GAS;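 further: secreted streptokinase activity via plasminogen activation per viability signal from cell pellet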
# T5 sequence (P10520 whole entry): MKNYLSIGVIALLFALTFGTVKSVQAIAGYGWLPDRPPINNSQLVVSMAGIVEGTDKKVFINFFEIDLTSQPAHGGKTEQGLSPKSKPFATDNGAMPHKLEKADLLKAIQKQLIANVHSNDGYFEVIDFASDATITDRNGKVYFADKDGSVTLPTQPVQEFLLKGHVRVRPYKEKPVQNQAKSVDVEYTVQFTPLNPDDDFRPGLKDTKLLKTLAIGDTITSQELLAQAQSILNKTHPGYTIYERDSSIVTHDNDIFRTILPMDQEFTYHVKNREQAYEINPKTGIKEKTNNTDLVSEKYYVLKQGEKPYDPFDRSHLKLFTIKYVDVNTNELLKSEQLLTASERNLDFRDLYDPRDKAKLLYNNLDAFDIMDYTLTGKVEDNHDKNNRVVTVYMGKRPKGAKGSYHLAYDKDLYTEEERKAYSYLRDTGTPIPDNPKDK
# Streptococcus = experiment: GAS UMAA2166 growth inhibition – luminescence, BacTiterGlo, counter-screen for streptokinase expression inhibitor project, dose response (AID 1915); assay type: functional, organism-based;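 further: potency for reduction of bacterial viability or growth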
# Cysteine protease ATG4B = target: T6, Cysteine protease ATG4B (Homo sapiens, UniProt Q9Y4P1); assay type: functional;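 further: Fluorescence-based dose-response confirmation assay measuring inhibition of ATG4B activity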
# T6 sequence (Q9Y4P1 whole entry): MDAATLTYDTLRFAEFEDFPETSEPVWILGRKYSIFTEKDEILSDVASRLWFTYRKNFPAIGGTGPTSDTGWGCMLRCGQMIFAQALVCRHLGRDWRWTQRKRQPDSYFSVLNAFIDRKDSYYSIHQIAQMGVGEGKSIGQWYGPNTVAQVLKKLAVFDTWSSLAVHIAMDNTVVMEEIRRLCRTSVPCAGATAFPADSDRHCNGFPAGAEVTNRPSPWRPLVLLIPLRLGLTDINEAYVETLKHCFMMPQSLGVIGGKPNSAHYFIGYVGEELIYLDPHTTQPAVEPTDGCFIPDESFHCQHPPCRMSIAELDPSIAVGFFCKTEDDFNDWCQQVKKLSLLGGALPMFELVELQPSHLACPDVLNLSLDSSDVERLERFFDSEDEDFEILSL
# Phospholipase A2 = Phospholipase A2 (Homo sapiens, UniProt P04054); assay type: functional;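 further: confirmatory dose-response counterscreen on phospholipase A2, testing hits that came from an ultra-high-throughput screen for ATG4B inhibitors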
# Fatty acid synthase [7] = target: T7, Fatty acid synthase (Homo sapiens, UniProt P49327); experiment: inhibition of human FAS-TE enzyme activity – biochemical, endpoint fluorescence intensity, uHTS hits, dose response (AID 624327); assay type: functional;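 further: fluorescence from hydrolysis of an O-methyl fluorescein acyl ester substrate by the enzyme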
# Fatty acid synthase [8] = target: T7, Fatty acid synthase; experiment: inhibition of human FAS-TE enzyme activity – biochemical, kinetic fluorescence intensity, dose response (AID 624326); assay type: functional;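 further: rate of fluorescence rise from hydrolysis of a fluorogenic O-methyl fluorescein ester substrate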
# Chain of Phospholipase A2 (P04054 whole entry): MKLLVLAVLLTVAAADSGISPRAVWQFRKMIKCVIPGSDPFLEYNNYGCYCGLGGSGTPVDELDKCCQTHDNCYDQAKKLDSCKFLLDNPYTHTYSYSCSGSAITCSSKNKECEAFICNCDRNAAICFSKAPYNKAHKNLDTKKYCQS
# T7 sequence (P49327 whole entry): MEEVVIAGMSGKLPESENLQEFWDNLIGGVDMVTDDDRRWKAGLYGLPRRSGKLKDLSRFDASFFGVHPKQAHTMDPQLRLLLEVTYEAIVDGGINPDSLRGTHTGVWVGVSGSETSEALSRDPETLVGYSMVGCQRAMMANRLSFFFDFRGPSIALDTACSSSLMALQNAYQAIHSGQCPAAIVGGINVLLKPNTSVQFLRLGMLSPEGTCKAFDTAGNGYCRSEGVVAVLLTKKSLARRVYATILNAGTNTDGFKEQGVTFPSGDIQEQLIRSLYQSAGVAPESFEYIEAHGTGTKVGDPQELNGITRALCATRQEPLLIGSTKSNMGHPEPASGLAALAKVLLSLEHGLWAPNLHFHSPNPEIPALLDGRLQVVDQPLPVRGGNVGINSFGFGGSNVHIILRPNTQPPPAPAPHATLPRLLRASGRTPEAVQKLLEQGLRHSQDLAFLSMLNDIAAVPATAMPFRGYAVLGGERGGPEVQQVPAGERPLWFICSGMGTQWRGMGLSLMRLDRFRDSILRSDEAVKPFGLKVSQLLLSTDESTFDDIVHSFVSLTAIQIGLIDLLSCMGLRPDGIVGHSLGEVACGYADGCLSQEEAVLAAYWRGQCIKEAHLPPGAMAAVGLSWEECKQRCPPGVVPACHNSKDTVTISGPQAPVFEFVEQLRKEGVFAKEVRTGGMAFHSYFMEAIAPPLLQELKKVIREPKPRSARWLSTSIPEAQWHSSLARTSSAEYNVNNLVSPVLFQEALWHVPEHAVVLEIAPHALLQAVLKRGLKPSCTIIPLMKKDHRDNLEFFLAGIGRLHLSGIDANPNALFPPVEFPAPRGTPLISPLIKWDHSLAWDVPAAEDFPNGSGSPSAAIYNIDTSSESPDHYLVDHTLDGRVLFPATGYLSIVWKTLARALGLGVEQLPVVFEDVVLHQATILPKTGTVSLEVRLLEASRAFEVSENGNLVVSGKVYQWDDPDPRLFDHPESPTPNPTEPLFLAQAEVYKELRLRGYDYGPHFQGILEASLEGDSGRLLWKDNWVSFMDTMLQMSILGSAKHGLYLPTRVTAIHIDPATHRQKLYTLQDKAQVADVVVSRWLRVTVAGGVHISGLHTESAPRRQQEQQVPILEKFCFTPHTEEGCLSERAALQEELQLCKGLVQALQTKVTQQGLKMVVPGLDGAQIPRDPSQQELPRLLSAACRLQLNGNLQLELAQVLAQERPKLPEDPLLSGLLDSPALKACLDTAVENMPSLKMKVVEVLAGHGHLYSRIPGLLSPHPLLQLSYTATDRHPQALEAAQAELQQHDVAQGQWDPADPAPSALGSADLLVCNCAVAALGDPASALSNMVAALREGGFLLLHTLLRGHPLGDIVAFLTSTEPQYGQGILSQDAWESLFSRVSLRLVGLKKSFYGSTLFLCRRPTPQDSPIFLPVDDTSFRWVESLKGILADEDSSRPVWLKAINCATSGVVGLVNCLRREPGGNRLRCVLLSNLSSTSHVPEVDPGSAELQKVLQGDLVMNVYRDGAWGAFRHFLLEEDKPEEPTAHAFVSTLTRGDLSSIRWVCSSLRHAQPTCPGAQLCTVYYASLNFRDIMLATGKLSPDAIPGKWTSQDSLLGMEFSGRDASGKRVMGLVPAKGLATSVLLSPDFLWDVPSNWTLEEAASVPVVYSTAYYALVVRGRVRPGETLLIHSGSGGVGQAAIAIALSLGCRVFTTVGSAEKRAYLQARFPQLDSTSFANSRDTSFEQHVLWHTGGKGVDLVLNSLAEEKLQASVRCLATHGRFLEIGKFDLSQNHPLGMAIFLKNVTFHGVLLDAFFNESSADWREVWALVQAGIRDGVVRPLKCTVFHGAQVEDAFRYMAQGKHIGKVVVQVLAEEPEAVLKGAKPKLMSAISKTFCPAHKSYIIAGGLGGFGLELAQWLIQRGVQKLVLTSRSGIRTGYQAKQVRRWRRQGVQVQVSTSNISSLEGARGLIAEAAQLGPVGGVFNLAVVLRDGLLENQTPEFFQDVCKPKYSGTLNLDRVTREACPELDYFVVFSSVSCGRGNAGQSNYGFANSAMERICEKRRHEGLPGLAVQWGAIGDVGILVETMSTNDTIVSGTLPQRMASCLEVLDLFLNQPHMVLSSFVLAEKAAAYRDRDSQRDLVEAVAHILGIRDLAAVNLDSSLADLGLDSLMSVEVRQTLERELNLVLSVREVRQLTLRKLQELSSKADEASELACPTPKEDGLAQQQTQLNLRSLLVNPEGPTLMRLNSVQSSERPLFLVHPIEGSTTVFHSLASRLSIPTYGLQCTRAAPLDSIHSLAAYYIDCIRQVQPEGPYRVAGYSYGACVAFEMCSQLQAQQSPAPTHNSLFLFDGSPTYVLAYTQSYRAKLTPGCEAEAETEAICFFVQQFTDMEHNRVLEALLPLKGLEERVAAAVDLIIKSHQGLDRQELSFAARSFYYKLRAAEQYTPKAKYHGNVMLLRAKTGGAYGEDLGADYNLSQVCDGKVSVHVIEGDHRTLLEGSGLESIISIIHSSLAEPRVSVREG
Compound,IC50 [3],IC50 (Caspase-3),IC50 [4],IC50 [5],IC50 (Cysteine protease ATG4B),IC50 (Phospholipase A2),other results
COc1ccc(OC)c2c(C)cc(N3CCN(C(=O)c4ccc(Cl)cc4)CC3)nc12,,,,,,,AC50 (Candida albicans [1]): 8.32 µM (active); AC50 (Candida albicans [2]): 9.36 µM (active)
COC(=O)c1ccc(NC(=O)C(=O)c2c[nH]c3ccccc23)cc1,> 99 µM (inactive),> 99 µM (inactive),> 99 µM (inactive),> 99 µM (inactive),,,
O=C1NC(=O)/C(=C\c2ccccc2OCc2ccccc2)S1,,,,,10.7 µM (active),8.29 µM (active),EC50 [6]: 16.4 µM (active); EC50 (Streptokinase A): 37.6 µM (active); EC50 (Streptococcus): 88.8 µM (active)
O=C(O)COc1ccccc1C=NNc1ccc([N+](=O)[O-])cc1S(=O)(=O)Nc1ccc(Cl)cc1,,,,,10.6 µM (active),12.2 µM (active),IC50 (Fatty acid synthase [7]): 10.8 µM (active); IC50 (Fatty acid synthase [8]): 12.5 µM (active)
O=C(Nc1ccccc1Cl)c1ccc(OCc2ccccc2)cc1,> 99 µM (inactive),> 99 µM (inactive),> 99 µM (inactive),> 99 µM (inactive),,,
COc1cc(C(=O)Nc2ccccc2Cl)ccc1OCc1ccc(Cl)cc1,> 99 µM (inactive),> 99 µM (inactive),> 99 µM (inactive),> 99 µM (inactive),,,
O=C(O/N=C1/CCSc2ccccc21)c1ccccc1,,,,,16 µM (active),13.2 µM (active),
